The values below come from patent publication US11219607B2, “Methods for suppressing cancer-related cachexia” (Ohio State Innovation Foundation, priority 2013, dated 2022).

The structures appear in SMILES notation.

Assay type in all cases: in vivo, CD2F1 mice
The subject of one test is Atrogin-1/MAFbx mRNA. Description: qPCR of gastrocnemius muscle, C-26 model: Atrogin-1. The note with it: C-26 tumor-bearing mice, 15 days after tumor cell injection, tumor-bearing/vehicle 29.4±3.5-fold, mean±S.D. As for the experimental part: (§1) Total RNA was isolated from homogenized gastrocnemius muscles (n=3/group) with TRIzol reagent (Life Technologies, Carlsbad, Calif.) and then purified using the RNAeasy Mini Kit (Qiagen, Valencia, Calif.). qRT-PCR was performed as described previously (42) by using the Bio-Rad CFX96 Real-Time PCR Detection System with iQ SYBR Green Supermix (Bio-Rad, Hercules, Calif.). RNA-seq library generation and data analysis were performed at The Ohio State University Comprehensive Cancer Center (OSUCCC) Nucleic Acid Shared Resource.
AR-42 was able to restore expression of Atrogin-1 (2.7±0.7-fold) and MuRF1 (1.1±0.2-fold) mRNA to basal levels […].
On the technique in general: Real-time PCR tracks product formation cycle by cycle.

A further test relates to TNF. Description: Serum cytokine profiling, C-26 model: TNF. The note with it: C-26 tumor-bearing mice. From the text: (§2) Gastrocnemius muscles and sera were collected at day 17 post-cell injection from each treatment group (n=8/group). Muscle was submitted to Metabolon, Inc. (Durham, N.C.) for metabolomic analysis of 270 metabolic intermediates via proprietary mass spectrometry platforms. Serum was submitted to Eve Technologies (Alberta, Canada) for analysis of 32 cytokines using a mouse cytokine array (32-plex panel).
(§3) To shed light onto the mechanism by which AR-42 mediated its anti-cachectic effect, sera and gastrocnemius muscle from vehicle- or AR-42-treated tumor-free and C-26 tumor-bearing mice were used for cytokine profiling analysis and whole transcriptome shotgun sequencing (RNA-seq), respectively.

The test system of the next test is IL-6. Description: Serum cytokine profiling, C-26 model: IL-6. The note with it: C-26 tumor-bearing mice, day 17; tumor-bearing/vehicle 230±105, tumor-free/vehicle 2.9±1.3.
From the text: as §2, §3

The next test relates to C-26 tumor-bearing mice. Description: C-26 colon adenocarcinoma model of cancer cachexia (body, muscle and tissue weights, tumor growth, food intake). As for the experimental part:
In one aspect, tumors were established by subcutaneous injection of C-26 cells (0.5×10^6 cells in 0.1 ml) into the right flank of male CD2F1 mice (approximately 6 weeks of age; Harlan Laboratories, Indianapolis, Ind.)(11). Tumor-bearing mice, as well as tumor-free mice serving as non-cachectic controls, were randomized into groups that were treated with either AR-42 (50 mg/kg, p.o. by gavage, every other day; Arno Therapeutics, Inc., Flemington, N.J.) or vehicle (0.5% methylcellulose (w/v) and 0.1% Tween-80 (v/v) in sterile water) starting 6 days after cell injection. To investigate the effect of delayed treatment, treatments with drug and/or vehicle were started 6, 10 and 12 days after cancer cell injection.
In another aspect, subcutaneous tumors were established in male C57BL/6 mice (approximately 6 weeks of age; Harlan) by injection of 0.5×10^6 LLC cells into the right flank. Treatment with AR-42 and vehicle was performed as for the C-26 model beginning 6 days after cell injection. In both models, body weights and food consumption were monitored daily and tumor size was measured no less than every two days. Mice were fasted for 2 hours prior to sacrifice, at which time, hind limb muscles, heart, spleen, epididymal fat, and blood were collected and the weights of the solid tissues were measured. Muscle samples were frozen in liquid nitrogen-chilled 2-methylbutane and then stored at −80° C. until analysis.
In one aspect, mice were treated orally by gavage with AR-42 (50 mg/kg) or vehicle every other day starting 6 days after injection C-26 cells, when palpable tumors had formed. […] By the study endpoint (day 15), the magnitude of the weight loss, after deducting the mass of the tumors (1 cm^3 volume=1 gram mass), reached >20% for the vehicle-treated group, and 6% for AR-42-treated mice (center). […] The AR-42-treated mice, despite their large tumor burden, were alert, responsive, active, and lacked the hunched posture and rough haircoat observed in vehicle-treated counterparts by the end point of this study (FIG. 1B).
CD2F1 and C57BL/6 mice were group-housed under conditions of constant photoperiod (12-hour light/12-hour dark), temperature and humidity with ad libitum access to water and standard diet. Mice were briefly anesthetized (isoflurane, 3-4%) during administration of drugs (AR-42, vorinostat, vehicle) by oral gavage. Food consumption was estimated by weighing food in each cage daily and dividing the daily decrease in food by the number of mice in the cage. Tumor volumes were calculated from caliper measurements using a standard formula (length×width^2×π/6).

Test [1] relates to global gene expression in muscle of C-26 tumor-bearing mice. Description: RNA-seq of gastrocnemius muscle, C-26 model. As for the experimental part:
as §1
Data analysis was conducted by using SAS 9.3 software (SAS, Inc; Cary, N.C.). For the experiments with repeated measures, data were analyzed by mixed effect models, incorporating observational dependencies across each subject. For other experiments involving independent groups, data were analyzed by ANOVA. For the time-to-event experiment (FIG. 2B), the difference in survival functions were compared by log-rank tests. Multiplicities were adjusted by Holm's method to control the overall family-wise error rate at 0.05. RNA-seq data were analyzed by using Ingenuity Pathway Analysis (IPA) software (Ingenuity Systems, Redwood City, Calif.). Only genes with >4-fold change and P<0.05 were selected for pathway analysis. […]
RNA quality was assessed on an Agilent 2100 Bioanalyzer using a Pico RNA chip and the input total RNA amount was assessed using Agilent Qubit RNA assay. […] The resultant libraries were assessed for quantity and quality using Agilent Qubit DNA assay and with PerkinElmer Labchip DNA GX analysis, respectively. All libraries were mixed in equal proportions generating pools of samples that would yield approximately 40 million passed filter reads when sequenced on Illumina HiSeq 2500 sequencer. The raw sequencing data from the Illumina HiSeq CASAVA pipeline were assessed for quality using FastQC, RNASeQC and RSeQC software. […]

Test [2] deals with gastrocnemius muscles of C-26 tumor-bearing mice. Description: Metabolomic profiling of gastrocnemius muscle, C-26 model. The note with it: day 17, C-26 tumor-bearing mice.
From the text: as §2
With cachexia, skeletal muscles undergo complex metabolic changes in response to tumor/host-derived inflammatory and neuroendocrine stressors (1). Accordingly, we conducted metabolic profiling analysis to investigate the effect of AR-42 on cachexia-induced shifts in metabolic phenotype in skeletal muscle. Tumor-free and C-26 tumor-bearing mice were treated with vehicle or AR-42 as aforementioned, and gastrocnemius muscles were collected at day 17 for metabolomic analysis.

On to `CC(C)[C@H](C(=O)Nc1ccc(C(=O)NO)cc1)c1ccccc1` [AR-42, (S)—N-hydroxy-4-(3-methyl-2-phenylbutanamido)benzamide], for which the “Atrogin-1 mRNA level relative to tumor-free/vehicle control” value in the test with Atrogin-1/MAFbx mRNA came to 2.7±0.7 fold. For the same compound, the “effect on serum TNF levels” value with TNF is listed as “no effect”. Moreover, the “serum IL-6 level” value with IL-6 was 102 ± 38 pg/mL. In addition, in the test with C-26 tumor-bearing mice, the “enlarged spleens (splenomegaly) in tumor-bearing mice” value is “not improved” and the “loss of cardiac tissue mass in tumor-bearing mice” value was “ameliorated”. The “tumor growth relative to vehicle” value with C-26 tumor-bearing mice (50 mg/kg p.o. every other day from day 6, 15-day study) is “did not alter tumor growth”. In addition, the “magnitude of the weight loss after deducting the mass of the tumors” value with C-26 tumor-bearing mice (50 mg/kg p.o. every other day from day 6, study endpoint day 15, vehicle group >20%) was determined as 6%. For the same compound, the “reduction of tibialis anterior weight relative to tumor-free control mice” value in the test with C-26 tumor-bearing mice (day 15, tumor-bearing/vehicle 10.5%) came out at 0.8%. The “reduction of quadriceps weight relative to tumor-free control mice” value in the test with C-26 tumor-bearing mice (day 15, tumor-bearing/vehicle 18.1%) was determined as 5.8%. Besides, the “reduction of gastrocnemius weight relative to tumor-free control mice” value with C-26 tumor-bearing mice (day 15, tumor-bearing/vehicle 20.6%) amounted to 9.6%. Further, the “loss of adipose tissue mass in tumor-bearing mice” value in the test with C-26 tumor-bearing mice (restored to a level comparable to tumor-free/AR-42 mice) is reported as “restored the loss of adipose tissue mass”. Moreover, in test [1], the “number of downregulated genes (4-fold or greater), AR-42- versus vehicle-treated tumor-bearing mice” value amounted to 301 genes and the “number of upregulated genes (4-fold or greater), AR-42- versus vehicle-treated tumor-bearing mice” value is listed as 376 genes. Further, the “number of genes with 4-fold or greater differential expression, AR-42- versus vehicle-treated tumor-bearing mice” value in test [1] (total) is 677 genes. Besides, in test [2], the “cachectic phenotype of free amino acids and amino acid metabolites” value was “reversed”; the “glycogen metabolic intermediates (short-chain malto-oligosaccharides, glucose 1-phosphate)” value was “significantly replenished”. Moreover, the “intramuscular levels of glucose and key glycolytic intermediates” value in test [2] (lowered in cachectic muscle) was “reversed these metabolic changes”. Also, in test [2] (to levels comparable to tumor-free mice), the “2-hydroxybutyrate and ophthalmate levels in muscle” value is recorded as “dramatically reduced”.
